In patent US12011444B2, “N-substituted indole derivatives as PGE2 receptor modulators” (Idorsia Pharmaceuticals Ltd, priority 2015, dated 2024):

Tests used:
[1] = target: PTGER2 (EP2) (Homo sapiens (Human), UniProt P43116); assay: hEP2 b-arrestin assay (PathHunter HEK 293 PTGER2 b-arrestin cells); type: cell-based; conditions: hEP2 b-arrestin assay (values without asterisk)
Summary of the method: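 Readout is β-galactosidase complementation luminescence, expressed as percent of DMSO control (duplicates). PathHunter HEK293 EP2/β-arrestin 2 cells, grown 24 h, received compound for 15 min at 37 °C before a 120 min challenge with PGE2 at 5 μM final, followed by 1 h detection at room temperature.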

[2] = target: PTRGER4 (EP4) (Homo sapiens (Human), UniProt P35408); assay: hEP4 b-arrestin assay (PathHunter HEK 293 PTGER4 b-arrestin cells); type: cell-based; conditions: hEP4 b-arrestin assay (values without asterisk)
Sequence of PTRGER4 (EP4) (P35408 whole entry, looked up, the tested form may be a part): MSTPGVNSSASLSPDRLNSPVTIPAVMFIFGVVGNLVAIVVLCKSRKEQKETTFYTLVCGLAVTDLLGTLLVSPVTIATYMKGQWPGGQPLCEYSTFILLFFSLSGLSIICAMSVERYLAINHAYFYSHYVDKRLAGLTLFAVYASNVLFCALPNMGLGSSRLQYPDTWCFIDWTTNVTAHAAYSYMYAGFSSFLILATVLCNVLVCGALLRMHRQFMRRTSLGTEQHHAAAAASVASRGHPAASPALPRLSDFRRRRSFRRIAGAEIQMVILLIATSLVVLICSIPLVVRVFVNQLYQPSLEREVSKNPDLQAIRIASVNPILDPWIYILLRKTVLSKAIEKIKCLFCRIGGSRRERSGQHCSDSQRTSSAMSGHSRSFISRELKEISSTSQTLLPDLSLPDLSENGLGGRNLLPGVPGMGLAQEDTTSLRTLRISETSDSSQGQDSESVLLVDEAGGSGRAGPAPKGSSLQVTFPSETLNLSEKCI
Summary of the method: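 Antagonist mode: compound is given 15 min at 37 °C, then 20 nM (final) PGE2 for 120 min, in HEK293 cells stably expressing EP4 fused to ProLink and β-arrestin 2 fused to EA. Recruitment read as β-gal luminescence after 1 h reagent at room temperature, as percent of DMSO control.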

Sequence of PTGER2 (EP2) (P43116 whole entry): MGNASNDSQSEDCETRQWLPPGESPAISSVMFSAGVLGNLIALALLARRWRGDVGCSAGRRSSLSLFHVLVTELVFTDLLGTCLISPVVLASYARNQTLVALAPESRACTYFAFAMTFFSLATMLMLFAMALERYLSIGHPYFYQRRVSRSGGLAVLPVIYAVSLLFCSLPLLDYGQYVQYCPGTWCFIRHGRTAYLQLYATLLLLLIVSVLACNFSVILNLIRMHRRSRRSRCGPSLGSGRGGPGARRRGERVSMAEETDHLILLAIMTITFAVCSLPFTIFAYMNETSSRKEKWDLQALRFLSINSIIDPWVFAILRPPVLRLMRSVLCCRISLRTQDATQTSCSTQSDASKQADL

| IC50 [1] [nM] | IC50 [2] [nM] | Compound |
| --- | --- | --- |
| 20 | 33 | CCOc1cc(-c2cc(NCCn3c(C#N)cc4c(OC)ccc(F)c43)ncn2)ccc1S(N)(=O)=O [Example 929, 4-{6-[2-(2-Cyano-7-fluoro-4-methoxy-indol-1-yl)-ethylamino]-pyrimidin-4-yl}-2-ethoxy-benzenesulfonamide] |
| 16 | 31 | CCOc1cc(-c2cc(NCCn3c(C#N)cc4c(OC)ccc(F)c43)ncn2)ccc1C(=O)C(=O)O [Example 934, (4-{6-[2-(2-Cyano-7-fluoro-4-methoxy-indol-1-yl)-ethylamino]-pyrimidin-4-yl}-2-ethoxy-phenyl)-oxo-acetic acid] |
| 7 | 4 | CCCSc1cc(-c2cc(NCCn3c(C#N)cc4c(OC)ccc(F)c43)ncn2)ccc1C(=O)O [Example 935, 4-{6-[2-(2-Cyano-7-fluoro-4-methoxy-indol-1-yl)-ethylamino]-pyrimidin-4-yl}-2-propylsulfanyl-benzoic acid] |
| 54 | 10 | COc1ccc(F)c2c1cc(C#N)n2CCNc1cc(-c2ccc(C(=O)O)c(CC(C)C)c2)ncn1 [Example 946, 4-{6-[2-(2-Cyano-7-fluoro-4-methoxy-indol-1-yl)-ethylamino]-pyrimidin-4-yl}-2-isobutyl-benzoic acid] |
| 30 | 16 | CCCc1cc(-c2cc(NCCn3c(C#N)cc4c(OC)ccc(F)c43)ncn2)ccc1C(=O)O [Example 947, 4-{6-[2-(2-Cyano-7-fluoro-4-methoxy-indol-1-yl)-ethylamino]-pyrimidin-4-yl}-2-propyl-benzoic acid] |
| 50 | 45 | CCc1cc(-c2cc(NCCn3c(C#N)cc4c(OC)ccc(F)c43)ncn2)ccc1C(=O)O [Example 948, 4-{6-[2-(2-Cyano-7-fluoro-4-methoxy-indol-1-yl)-ethylamino]-pyrimidin-4-yl}-2-ethyl-benzoic acid] |
| 18 | 42 | CCCOc1cc(-c2cc(NCCn3c(C#N)cc4c(OC)ccc(F)c43)ncn2)ccc1C(=O)O [Example 950, 4-{6-[2-(2-Cyano-7-fluoro-4-methoxy-indol-1-yl)-ethylamino]-pyrimidin-4-yl}-2-propoxy-benzoic acid] |

The remaining lines, values behind:

| Compound | IC50 [1] [nM] | IC50 [2] [nM] |
| --- | --- | --- |
| CCOc1c(C(=O)O)ccc(-c2cc(NCCn3c(C#N)cc4c(OC)ccc(F)c43)ncn2)c1F [Example 928, 4-{6-[2-(2-Cyano-7-fluoro-4-methoxy-indol-1-yl)-ethylamino]-pyrimidin-4-yl}-2-ethoxy-3-fluoro-benzoic acid] | 37 | 45 |
| CCOc1cc(-c2cc(NCCn3c(C#N)cc4c(OC)ccc(F)c43)ncn2)ccc1-c1cnn[nH]1 [Example 930, 1-(2-{6-[3-Ethoxy-4-(3H-[1,2,3]triazol-4-yl)-phenyl]-pyrimidin-4-ylamino}-ethyl)-7-fluoro-4-methoxy-1H-indole-2-carbonitrile] | 4 | 2 |
| CCOc1cc(-c2cc(NCCn3c(C#N)cc4c(OC)ccc(F)c43)ncn2)sc1CCC(=O)O [Example 932, 3-(5-{6-[2-(2-Cyano-7-fluoro-4-methoxy-indol-1-yl)-ethylamino]-pyrimidin-4-yl}-3-ethoxy-thiophen-2-yl)-propionic acid] | 14 | 3 |
| COc1ccc(F)c2c1cc(C#N)n2CCNc1cc(-c2ccc(-c3c(O)c(=O)c3=O)cc2)ncn1 [Example 933, 7-Fluoro-1-(2-{6-[4-(2-hydroxy-3,4-dioxo-cyclobut-1-enyl)-phenyl]-pyrimidin-4-ylamino}-ethyl)-4-methoxy-1H-indole-2-carbonitrile] | 12 | 4 |
| CCCSc1cc(-c2cc(NCCn3c(C#N)cc4c(OC)cc(F)cc43)ncn2)ccc1C(=O)O [Example 936, 4-{6-[2-(2-Cyano-6-fluoro-4-methoxy-indol-1-yl)-ethylamino]-pyrimidin-4-yl}-2-propylsulfanyl-benzoic acid] | 18 | 8 |
| COc1ccc(F)c2c1cc(C#N)n2CCNc1cc(-c2ccc(C(=O)O)c(SC(C)C)c2)ncn1 [Example 937, 4-{6-[2-(2-Cyano-7-fluoro-4-methoxy-indol-1-yl)-ethylamino]-pyrimidin-4-yl}-2-isopropylsulfanyl-benzoic acid] | 21 | 13 |
| COc1cc(F)cc2c1cc(C#N)n2CCNc1cc(-c2ccc(C(=O)O)c(SC(C)C)c2)ncn1 [Example 938, 4-{6-[2-(2-Cyano-6-fluoro-4-methoxy-indol-1-yl)-ethylamino]-pyrimidin-4-yl}-2-isopropylsulfanyl-benzoic acid] | 38 | 29 |
| CCCc1cc(-c2cc(NCCn3c(C#N)cc4c(OC)ccc(F)c43)ncn2)cc(F)c1C(=O)O [Example 939, 4-{6-[2-(2-Cyano-7-fluoro-4-methoxy-indol-1-yl)-ethylamino]-pyrimidin-4-yl}-2-fluoro-6-propyl-benzoic acid] | 15 | 17 |
| CCOc1cc(-c2cc(NCCn3c(C#N)cc4c(C)c(F)cc(F)c43)ncn2)sc1C(=O)O [Example 940, 5-{6-[2-(2-Cyano-5,7-difluoro-4-methyl-indol-1-yl)-ethylamino]-pyrimidin-4-yl}-3-ethoxy-thiophene-2-carboxylic acid] | 10 | 3 |
| CCOc1cc(-c2cc(NCCn3c(C#N)cc4c(C)cc(F)c(F)c43)ncn2)sc1C(=O)O [Example 942, 5-{6-[2-(2-Cyano-6,7-difluoro-4-methyl-indol-1-yl)-ethylamino]-pyrimidin-4-yl}-3-ethoxy-thiophene-2-carboxylic acid] | 3 | 6 |
| CCOc1cc(-c2cc(NCCn3c(C#N)cc4c(OC)cc(F)c(F)c43)ncn2)sc1C(=O)O [Example 943, 5-{6-[2-(2-Cyano-6,7-difluoro-4-methoxy-indol-1-yl)-ethylamino]-pyrimidin-4-yl}-3-ethoxy-thiophene-2-carboxylic acid] | 4 | 2 |
| CCOc1cc(-c2cc(NCCn3c(C#N)cc4c(OC)cc(F)c(F)c43)ncn2)ccc1OCC(=O)O [Example 944, (4-{6-[2-(2-Cyano-6,7-difluoro-4-methoxy-indol-1-yl)-ethylamino]-pyrimidin-4-yl}-2-ethoxy-phenoxy)-acetic acid] | 16 | 7 |
| CCOc1cc(-c2cc(NCCn3c(C#N)cc4c(OC)cc(F)c(F)c43)ncn2)ccc1NCC(=O)O [Example 945, (4-{6-[2-(2-Cyano-6,7-difluoro-4-methoxy-indol-1-yl)-ethylamino]-pyrimidin-4-yl}-2-ethoxy-phenylamino)-acetic acid] | 9 | 2 |
| COc1ccc(F)c2c1cc(C#N)n2CCNc1cc(-c2ccc(C(=O)O)c(OCC(C)C)c2)ncn1 [Example 949, 4-{6-[2-(2-Cyano-7-fluoro-4-methoxy-indol-1-yl)-ethylamino]-pyrimidin-4-yl}-2-isobutoxy-benzoic acid] | 7 | 14 |
| CCSc1cc(-c2cc(NCCn3c(C#N)cc4c(C)ccc(F)c43)ncn2)ccc1C(=O)O [Example 951, 4-{6-[2-(2-Cyano-7-fluoro-4-methyl-indol-1-yl)-ethylamino]-pyrimidin-4-yl}-2-ethylsulfanyl-benzoic acid] | 15 | 27 |
